The target of experiment [1] is T1, Calpain-1 catalytic subunit (Sus scrofa, UniProt P35750).
T1 sequence (P35750 whole entry): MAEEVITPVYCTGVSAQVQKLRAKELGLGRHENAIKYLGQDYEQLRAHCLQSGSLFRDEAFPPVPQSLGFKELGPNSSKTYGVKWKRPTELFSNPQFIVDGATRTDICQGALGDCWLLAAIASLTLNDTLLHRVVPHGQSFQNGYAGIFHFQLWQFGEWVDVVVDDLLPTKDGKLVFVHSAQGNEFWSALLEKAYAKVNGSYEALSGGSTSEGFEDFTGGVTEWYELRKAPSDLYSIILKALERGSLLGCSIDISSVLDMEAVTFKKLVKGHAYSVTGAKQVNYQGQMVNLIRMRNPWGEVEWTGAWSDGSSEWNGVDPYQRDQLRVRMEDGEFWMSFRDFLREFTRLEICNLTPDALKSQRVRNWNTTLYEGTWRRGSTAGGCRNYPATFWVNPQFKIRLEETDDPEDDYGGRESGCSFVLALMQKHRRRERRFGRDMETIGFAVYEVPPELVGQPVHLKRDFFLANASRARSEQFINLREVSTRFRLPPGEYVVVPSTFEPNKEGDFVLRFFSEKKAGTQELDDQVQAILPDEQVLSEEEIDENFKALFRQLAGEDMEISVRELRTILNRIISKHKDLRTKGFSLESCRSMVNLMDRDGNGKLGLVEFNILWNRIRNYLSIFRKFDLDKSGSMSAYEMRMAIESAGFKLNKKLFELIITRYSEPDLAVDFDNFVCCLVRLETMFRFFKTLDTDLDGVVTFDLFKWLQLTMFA
Description: Inhibition of Ca2+-dependent activation of porcine calpain-1 using SucLY-AMC as substrate.

Experiment [2] deals with T1, Calpain-1 catalytic subunit. Description: Inhibition of Ca2+-dependent activation of porcine calpain-1 using H-K(FAM)-EVYGMMK(DABCYL)-OH as substrate by FRET assay.
Experiment [3] has as its target T2, Calpain-1 catalytic subunit (Homo sapiens) (UniProt P07384).
T2 sequence (whole entry): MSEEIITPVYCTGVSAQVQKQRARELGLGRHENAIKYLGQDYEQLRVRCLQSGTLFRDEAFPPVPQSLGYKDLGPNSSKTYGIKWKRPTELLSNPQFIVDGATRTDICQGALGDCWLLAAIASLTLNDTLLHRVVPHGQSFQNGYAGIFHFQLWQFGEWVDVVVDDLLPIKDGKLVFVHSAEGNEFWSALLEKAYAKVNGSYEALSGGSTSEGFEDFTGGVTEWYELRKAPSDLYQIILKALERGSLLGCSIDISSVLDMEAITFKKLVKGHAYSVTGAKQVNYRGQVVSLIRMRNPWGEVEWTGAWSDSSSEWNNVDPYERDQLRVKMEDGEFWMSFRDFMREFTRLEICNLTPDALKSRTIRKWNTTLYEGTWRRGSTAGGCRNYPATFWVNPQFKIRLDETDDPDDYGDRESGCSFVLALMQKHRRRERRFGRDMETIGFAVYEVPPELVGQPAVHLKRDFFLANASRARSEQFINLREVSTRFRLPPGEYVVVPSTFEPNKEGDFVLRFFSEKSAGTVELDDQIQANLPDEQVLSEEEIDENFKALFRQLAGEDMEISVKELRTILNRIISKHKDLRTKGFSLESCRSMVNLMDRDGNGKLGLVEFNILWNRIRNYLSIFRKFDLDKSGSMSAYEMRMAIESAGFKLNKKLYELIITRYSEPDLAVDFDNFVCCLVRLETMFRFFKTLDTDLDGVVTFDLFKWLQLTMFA
Description: Inhibition of calpain-1 in human neutrophils assessed as cell spreading at 10 uM.

For experiment [4], the target named is T3, Calpain-1 catalytic subunit (Homo sapiens, UniProt P07384).
T3 sequence (P07384 whole entry): T2 sequence (whole entry)
Description: Inhibition of human erythrocytes mu-calpain using SLLVY-AMC as substrate after 60 mins.

The target of experiment [5] is T4, Calpain-2 catalytic subunit (Homo sapiens, UniProt P17655).
T4 sequence (P17655 whole entry): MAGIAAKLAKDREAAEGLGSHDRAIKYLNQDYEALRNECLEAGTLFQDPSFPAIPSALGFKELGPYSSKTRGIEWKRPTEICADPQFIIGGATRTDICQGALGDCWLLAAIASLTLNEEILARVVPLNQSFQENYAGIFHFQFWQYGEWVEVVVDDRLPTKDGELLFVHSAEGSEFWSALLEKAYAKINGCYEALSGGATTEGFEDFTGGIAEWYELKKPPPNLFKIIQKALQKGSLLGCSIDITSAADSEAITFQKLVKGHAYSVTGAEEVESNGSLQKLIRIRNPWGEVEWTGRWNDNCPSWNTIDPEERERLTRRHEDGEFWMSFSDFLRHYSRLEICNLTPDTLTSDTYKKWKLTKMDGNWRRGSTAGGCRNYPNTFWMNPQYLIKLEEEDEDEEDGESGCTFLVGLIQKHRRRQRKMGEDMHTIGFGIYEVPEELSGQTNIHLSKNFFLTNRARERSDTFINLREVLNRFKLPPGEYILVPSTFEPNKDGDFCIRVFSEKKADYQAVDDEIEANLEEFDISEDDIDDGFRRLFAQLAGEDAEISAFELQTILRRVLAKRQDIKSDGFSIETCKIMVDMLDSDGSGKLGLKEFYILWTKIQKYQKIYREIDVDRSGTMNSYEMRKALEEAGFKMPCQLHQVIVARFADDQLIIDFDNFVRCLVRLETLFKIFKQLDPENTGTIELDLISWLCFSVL
Description: Inhibition of calpain-2 (unknown origin).

Structures are written as SMILES. Active and inactive are the calls of the source. No cut-off for these calls is given here.

Broadly, the IC50 is the concentration that gives 50% inhibition. Read a low IC50 as greater potency. Consider `O=C(O)/C(S)=C/c1c[nH]c2ccc(Cl)cc12`, for which the IC50 is 50 nM in experiment [1] and 250 nM in experiment [2].

With `O=C(O)/C(S)=C/c1c[nH]c2ccc(I)cc12`, the IC50 in experiment [1] came out at 90 nM; in experiment [2] it was 100 nM.

Take `O=C(O)/C(S)=C/c1c[nH]c2cc(F)ccc12`: the IC50 in experiment [1] came out at 300 nM; in experiment [2], 10 nM. Moreover, the inhibition entry in experiment [3] was “Active”.

As for `O=C(O)/C(S)=C/c1c[nH]c2cccc(Br)c12`, the IC50 worked out at 100 nM in experiment [1] and 6 nM in experiment [2].

One may read the Ki as the dissociation constant of the complex between target and ligand, obtained from inhibition or displacement. Read a high Ki as lower affinity. Consider `O=C(O)/C(S)=C/c1c[nH]c2ccc(F)cc12`, for which the IC50 in experiment [1] came to 930 nM; in experiment [2] it was 800 nM. Also, the Ki in experiment [4] was determined as 260 nM; in experiment [5], 5330 nM.

Consider `O=C(O)/C(S)=C/c1ccccc1F`, for which the IC50 in experiment [1] amounted to 23200 nM; in experiment [2], 21900 nM.

For `O=C(O)/C(S)=C/c1ccc(I)cc1`, the IC50 in experiment [1] came to 5200 nM; in experiment [2], 2200 nM. Also, the Ki in experiment [4] is 210 nM; in experiment [5], 370 nM.

On to `O=C(O)/C(S)=C/c1c[nH]c2cc(Cl)ccc12`, for which the IC50 in experiment [1] was 100 nM; in experiment [2], 210 nM. For the same compound, the inhibition entry in experiment [3] is “Active”.

For `O=C(O)/C(S)=C/c1c[nH]c2cccc(Cl)c12`, the IC50 in experiment [1] amounted to 140 nM; in experiment [2] it was 20 nM.

On to `O=C(O)/C(S)=C/c1cccc(Cl)c1`, for which the IC50 in experiment [1] was found to be 13100 nM; in experiment [2] it was 4200 nM.

As for `O=C(O)/C(S)=C/c1c[nH]c2c(F)cccc12`, the IC50 came to 110 nM in experiment [1] and 120 nM in experiment [2].

On to `O=C(O)/C(S)=C/c1c[nH]c2cc(Br)ccc12`, for which the IC50 in experiment [1] turned out to be 90 nM; in experiment [2], 7 nM. Further, the inhibition result in experiment [3] is “Active”.

For the compound `O=C(O)/C(S)=C/c1cccc(I)c1`, the IC50 in experiment [1] turned out to be 23900 nM; in experiment [2], 4300 nM.

For `O=C(O)/C(S)=C/c1cccc(F)c1`, the 50% inhibitory concentration (IC50) was determined as 31500 nM in experiment [1] and 19000 nM in experiment [2].

Consider `O=C(O)/C(S)=C/c1ccc(Cl)cc1`, for which the 50% inhibitory concentration (IC50) in experiment [1] was 15000 nM; in experiment [2] it was 2600 nM.

For `O=C(O)/C(S)=C/c1c[nH]c2cc(I)ccc12`, the IC50 in experiment [1] is 300 nM; in experiment [2] it was 170 nM.

For the compound `O=C(O)/C(S)=C/c1ccc(Br)cc1`, the IC50 in experiment [1] and in experiment [2] was 1500 nM throughout.

Consider `O=C(O)/C(S)=C/c1ccccc1Br`, for which the IC50 in experiment [1] was 9100 nM; in experiment [2], 21000 nM.

Consider `O=C(O)/C(S)=C/c1c[nH]c2cccc(F)c12`, for which the IC50 stood at 300 nM in experiment [1] and 10 nM in experiment [2].

In the case of `O=C(O)/C(S)=C/c1cccc(Br)c1`, the IC50 is 8400 nM in experiment [1] and 4000 nM in experiment [2].

Consider `O=C(O)/C(S)=C/c1c[nH]c2c(Cl)cccc12`, for which the results for the IC50 in experiment [1] and in experiment [2] were 90 nM and 10 nM, respectively.

Turning to `O=C(O)/C(S)=C/c1c[nH]c2ccc(Br)cc12`, the values for the IC50 in experiment [1] and in experiment [2] were 20 nM and 6 nM, respectively.

Regarding `O=C(O)/C(S)=C/c1ccccc1Cl`, the IC50 in experiment [1] came to 20700 nM; in experiment [2] it was 11900 nM.

Take `O=C(O)/C(S)=C/c1c[nH]c2c(I)cccc12`: the figures for the IC50 in experiment [1] and in experiment [2] were 220 nM and 90 nM, respectively.

Turning to `O=C(O)/C(S)=C/c1c[nH]c2c(Br)cccc12`, the IC50 worked out at 70 nM in experiment [1] and 2 nM in experiment [2].

For `O=C(O)/C(S)=C/c1ccc(F)cc1`, the IC50 was 5600 nM in experiment [1] and 6900 nM in experiment [2].
